Consider 8 compounds from PubChem BioAssay (NCI).

Some test systems named below: M14 melanoma; EKVX NSCLC; A498 renal; SK-MEL-2 melanoma; UACC-257 melanoma; CCRF-CEM leukemia; NCI-H460 lung; OVCAR-4 ovarian; SW-620 colon; MALME-3M melanoma.
What all share (test): NCI tumour cell line growth inhibition, 48 h

The structures appear in SMILES notation.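 Following 48 hours of exposure in 96-well plates, responses at five concentrations were used to interpolate endpoints linearly. GI50 marks 50% less growth. The concentration for full growth arrest is given as TGI.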 A value given as a limit tells only on which side of the number the result lay.

With `C#Cc1cccc(Nc2nc(C)nc3cc(NC(=O)CCl)ccc23)c1`, the GI50 was 2.55 µM in the experiment on M14 melanoma; 3.13 µM with EKVX NSCLC; 3.65 µM in the experiment with A498 renal; 3.9 µM in the experiment with SK-MEL-2 melanoma; 4.07 µM with UACC-257 melanoma; 0.638 µM with CCRF-CEM leukemia. Moreover, the GI50 with NCI-H460 lung was 3.23 µM; in the experiment on OVCAR-4 ovarian it was 1.83 µM; in the experiment with SW-620 colon it was 0.659 µM; with MALME-3M melanoma it was 0.465 µM. Besides, the TGI with M14 melanoma was determined as 6.17 µM; with EKVX NSCLC, 7.62 µM; with A498 renal, 7.64 µM; with SK-MEL-2 melanoma, 7.9 µM; in the experiment on UACC-257 melanoma it was 7.62 µM; with CCRF-CEM leukemia, 2.22 µM. For the same compound, the TGI stood at 7.19 µM in the experiment with NCI-H460 lung, 6.05 µM in the experiment with OVCAR-4 ovarian, 1.93 µM in the experiment on SW-620 colon and 1.11 µM in the experiment with MALME-3M melanoma.

As to `O=C1NN(C(=O)c2ccccc2)C(c2ccc(Cl)c(Cl)c2)=C/C1=C\c1ccccc1[N+](=O)[O-]`, the GI50 in the experiment with M14 melanoma is 1.9 µM; in the experiment with EKVX NSCLC it was 2.81 µM; in the experiment on A498 renal it was 2.21 µM; in the experiment with SK-MEL-2 melanoma, 3.11 µM; in the experiment with UACC-257 melanoma it was 5.23 µM; in the experiment on CCRF-CEM leukemia it was 1.91 µM. Moreover, the GI50 is 1.78 µM with NCI-H460 lung, 2.26 µM in the experiment with OVCAR-4 ovarian, 2.27 µM in the experiment with SW-620 colon and 4.53 µM in the experiment with MALME-3M melanoma. Besides, the TGI in the experiment on M14 melanoma is over 6.75 µM; in the experiment with EKVX NSCLC, over 6.75 µM; in the experiment on A498 renal, 6.21 µM; with SK-MEL-2 melanoma, over 6.75 µM; with UACC-257 melanoma, over 6.75 µM; with CCRF-CEM leukemia it was over 6.75 µM. The TGI in the experiment with NCI-H460 lung is 5.2 µM; with OVCAR-4 ovarian, over 6.75 µM; in the experiment with SW-620 colon, over 6.75 µM; with MALME-3M melanoma, over 6.75 µM.

Regarding `CCCC(=O)Oc1ccc(/C=N/NC(N)=S)nc1`, the TGI in the experiment on M14 melanoma, with EKVX NSCLC, with A498 renal, in the experiment on SK-MEL-2 melanoma, in the experiment on UACC-257 melanoma and with CCRF-CEM leukemia was over 100 µM throughout. In addition, the TGI in the experiment with NCI-H460 lung, in the experiment on OVCAR-4 ovarian, in the experiment with SW-620 colon and with MALME-3M melanoma was over 100 µM throughout.

Take `Cn1cnc(SC2=CC(=O)C=C3S[C@H]4C[C@@]23c2c(c(O)c3c5c2=NCCC=5C=N3)N4)c1CC(N)C(=O)O` (stereo partly drawn): the GI50 in the experiment with M14 melanoma was 15.1 µM; in the experiment on EKVX NSCLC it was 19.3 µM; in the experiment with A498 renal, 18.1 µM; in the experiment on SK-MEL-2 melanoma, 9.62 µM; with UACC-257 melanoma it was 11.6 µM; with CCRF-CEM leukemia it was 3.76 µM. For the same compound, the GI50 is 16.2 µM in the experiment on NCI-H460 lung, 13.4 µM in the experiment with OVCAR-4 ovarian and 2.37 µM with MALME-3M melanoma. In addition, the TGI with M14 melanoma came to 28.6 µM; with EKVX NSCLC it was 34.3 µM; with A498 renal, 32.7 µM; in the experiment with SK-MEL-2 melanoma, 24.7 µM; in the experiment on UACC-257 melanoma it was 23.8 µM; with CCRF-CEM leukemia it was 44.1 µM. Besides, the TGI turned out to be 31.6 µM in the experiment on NCI-H460 lung, 26.2 µM with OVCAR-4 ovarian, 9.52 µM with SW-620 colon and 5.04 µM in the experiment with MALME-3M melanoma.

Consider `O=C(O)c1nn(-c2ccc(Cl)cc2)c2c1C(=O)c1ccccc1C2=O`, for which the TGI is 63.9 µM with M14 melanoma; over 100 µM with EKVX NSCLC; over 100 µM in the experiment with A498 renal; over 100 µM in the experiment with SK-MEL-2 melanoma; over 100 µM in the experiment with UACC-257 melanoma; over 100 µM in the experiment on CCRF-CEM leukemia. Also, the TGI is over 100 µM with NCI-H460 lung, over 100 µM in the experiment on OVCAR-4 ovarian, over 100 µM with SW-620 colon and 28.1 µM in the experiment with MALME-3M melanoma.

As for `Cn1cc(-c2ncnc3ccc(-c4cnc(Cl)c(NS(C)(=O)=O)c4)cc23)c2ccccc21`, the GI50 was 0.976 µM with M14 melanoma; 0.598 µM in the experiment with EKVX NSCLC; 0.207 µM with A498 renal; 1.16 µM with SK-MEL-2 melanoma; 0.959 µM with UACC-257 melanoma; 0.687 µM with CCRF-CEM leukemia. For the same compound, the GI50 was 0.365 µM with NCI-H460 lung, 0.921 µM in the experiment with OVCAR-4 ovarian, 1.28 µM with SW-620 colon and 0.227 µM in the experiment with MALME-3M melanoma. The TGI was over 100 µM with M14 melanoma; 1.4 µM in the experiment with A498 renal; 4.85 µM with SK-MEL-2 melanoma; 7.05 µM in the experiment on UACC-257 melanoma; over 62.7 µM with CCRF-CEM leukemia; over 100 µM with NCI-H460 lung. Also, the TGI in the experiment on OVCAR-4 ovarian is 6.99 µM; with SW-620 colon it was over 100 µM; in the experiment with MALME-3M melanoma it was 2.48 µM.

Turning to `COc1ccc(-c2c(NC(=O)Nc3ccc(Cl)c(C(F)(F)F)c3)cnn2-c2ccc(S(N)(=O)=O)cc2)cc1`, the GI50 was 3.32 µM with M14 melanoma; 3.77 µM in the experiment on EKVX NSCLC; 2.84 µM in the experiment on A498 renal; 2.42 µM in the experiment on SK-MEL-2 melanoma; 3.29 µM in the experiment with UACC-257 melanoma; 3 µM in the experiment with CCRF-CEM leukemia. In addition, the GI50 is 3.5 µM in the experiment with NCI-H460 lung, 2.9 µM in the experiment on OVCAR-4 ovarian, 3.86 µM in the experiment on SW-620 colon and 2.51 µM in the experiment with MALME-3M melanoma. Further, the TGI in the experiment on M14 melanoma was found to be 12 µM; in the experiment with EKVX NSCLC, 16.4 µM; with A498 renal, 8.29 µM; with SK-MEL-2 melanoma it was 5.52 µM; in the experiment with UACC-257 melanoma it was 12 µM; with CCRF-CEM leukemia, 11.3 µM. The TGI in the experiment on NCI-H460 lung was determined as 10.4 µM; in the experiment on OVCAR-4 ovarian it was 13.1 µM; in the experiment on SW-620 colon, 13.8 µM; in the experiment on MALME-3M melanoma, 7.72 µM.

Regarding `COc1nc(NC2OC(COC(C)=O)C(OC(C)=O)C(OC(C)=O)C2OC(C)=O)c(N=C(C)C(C)=O)c(=O)n1C` (stereo not drawn), the TGI with M14 melanoma, with EKVX NSCLC, in the experiment on A498 renal, in the experiment with SK-MEL-2 melanoma, in the experiment on UACC-257 melanoma and in the experiment with CCRF-CEM leukemia was over 100 µM throughout. Moreover, the TGI in the experiment on NCI-H460 lung, in the experiment on OVCAR-4 ovarian, in the experiment on SW-620 colon and with MALME-3M melanoma was over 100 µM throughout.
